For this test, the target named is T1, HEK 293 GPR73 (prokineticin 1 receptor) expressing cells (Homo sapiens, UniProt Q8TCW9).
T1 construct: expressed in transfected cells; host or cells: HEK 293
Briefly: PK1 functional assay: screening for PK1 antagonists on the FLIPR (calcium fluorescence). It counts as cell-based. The conditions noted are these: HEK 293 GPR73 cells; for inhibition at 10 µM: HEK293, compound at 10 μM, read-out: Ca^2+ Mobilization % Inh @10 μM; for IC50: PK1 ligand at EC50, multiple values = repeat tests, read-out: Ca^2+ Mobilization IC50. A digest of the protocol:
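HEK 293 cells expressing GPR73 were loaded with Calcium Plus Dye for 30 min at 37 C, then read for calcium fluorescence on FLIPR. Values were baseline-subtracted and expressed as percent of maximal control; percent inhibition is 100 minus that, and IC50 was fitted from it.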

For orientation: IC50 means the midpoint of a concentration-inhibition curve.

T1 sequence (Q8TCW9 whole entry): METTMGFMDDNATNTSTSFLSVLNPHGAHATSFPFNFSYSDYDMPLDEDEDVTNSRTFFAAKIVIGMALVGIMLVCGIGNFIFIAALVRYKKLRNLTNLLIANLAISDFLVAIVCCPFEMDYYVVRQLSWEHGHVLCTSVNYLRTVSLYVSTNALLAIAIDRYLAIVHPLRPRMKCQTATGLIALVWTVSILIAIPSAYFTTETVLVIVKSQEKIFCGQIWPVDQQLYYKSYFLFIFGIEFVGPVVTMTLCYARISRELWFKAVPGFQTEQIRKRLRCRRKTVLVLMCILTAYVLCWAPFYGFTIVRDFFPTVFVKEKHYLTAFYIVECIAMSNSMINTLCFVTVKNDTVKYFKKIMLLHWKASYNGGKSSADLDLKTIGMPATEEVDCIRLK

Regarding `COc1ccc(Cn2c(OCCNC(=N)N)cc(=O)n(Cc3ccc(OC)cc3)c2=O)cc1` [Cpd 158, N-{2-[1,3-Bis-(4-methoxy-benzyl)-2,6-dioxo-1,2,3,6-tetrahydro-pyrimidin-4-yloxy]-ethyl}-guanidine], the IC50 worked out at 254 nM. Besides, where the note is “multiple values = repeat tests”, the inhibition at 10 µM was found to be 93%.
The corresponding values for `COc1ccc(Cn2c(SCCNC(=N)N)cc(=O)n(Cc3ccc(OC)cc3)c2=O)cc1` [Cpd 159, N-{2-[1,3-Bis-(4-methoxy-benzyl)-2,6-dioxo-1,2,3,6-tetrahydro-pyrimidin-4-ylsulfanyl]-ethyl}-guanidine] are 13 nM and 98%.
The corresponding values for `COc1ccc(Cn2c(CCCNC(=N)N)cc(=O)n(Cc3ccc(OC)cc3)c2=O)cc1` [Cpd 160, N-{3-[1,3-Bis-(4-methoxy-benzyl)-2,6-dioxo-1,2,3,6-tetrahydro-pyrimidin-4-yl]-propyl}guanidine] are 616 nM and 89%.
On to “N-{2-[5-Benzyl-1-(4-methoxy-benzyl)-4,6-dioxo-1,4,5,6-tetrahydro-[1,3,5]triazin-2-ylamino]-ethyl}-oxyguanidine [Cpd 27]”, for which the IC50 amounted to 1970 nM. Moreover, the “Ca^2+ Mobilization % Inh @10 μM” value (compound at 10 μM, multiple values = repeat tests) is listed as 55%.

The record behind these values is US20080045535A1, “Prokineticin 2 receptor antagonists” (priority 2005, published 2008).
